Here are results for two compounds from patent publication US20110135754A1, “CONTROL OF DISEASES IN CROPS” (priority 2008, published 2011).

For data set [1] the following is noted: at 20 c; in water; cited from earlier work.
Data set [2] has as its system rust. The data set can be described thus: Field spray of vanadyl citrate solution on an oats crop to control rust. As to conditions: oats crop for stock feed, about 2 hectares, sprayed at approx. 150 mm height, approx. 7.5 grams of elemental vanadium per hectare; adjacent untreated crop failed to give any yield due to rust. It counts as in vivo. As to the method:
A solution containing vanadium in the form of vanadyl citrate was prepared. The solution was sprayed onto about 2 hectares of an oats crop for stock feed, that was in early stages of growth where the crop was approximately 150 mm in height. The spray was applied in a manner such that approximately 7.5 grams of elemental vanadium per hectare, was applied to the crop.

In the case of `[O]=[V](=[O])[O][V](=[O])=[O]` [Vanadium Pentoxide, vanadium pentoxide], the solubility in data set [1] was 0.8 g/100 ml. Take `O=C([O-])CC(O)(CC(=O)[O-])C(=O)[O-].[O]=[V+2]` [vanadyl citrate]: the “crop yield (cuttings delivered) of treated crop” value in data set [2] is recorded as “delivered three cuttings”.
